Test system: SARS-CoV-2
Assay: In vitro SARS-CoV-2 plaque inhibition assay in Vero E6 cells
Assay type: cell-based

SMILES | reduction of the production of SARS-CoV-2 plaques (10 µM, 48 h) [%] | IC50 (Severe acute respiratory syndrome coronavirus 2, Vero C1008, estimated, read-out: IC50 plaque formation) [µM] | antiviral effects (plaque inhibition) (10 µM, 48 h)
CC[C@H](NC(=O)[C@H](C)NC)C(=O)N1C[C@@H](O)C[C@H]1Cc1c(-c2[nH]c3cc(F)ccc3c2C[C@@H]2C[C@H](O)CN2C(=O)[C@H](CC)NC(=O)[C@H](C)NC)[nH]c2cc(F)ccc12 [Birinapant] | 37 | 18 ± 3.6 | –
COC(=O)N[C@H](C(=O)N[C@@H](Cc1ccccc1)[C@@H](O)CN(Cc1ccc(-c2ccccn2)cc1)NC(=O)[C@@H](NC(=O)OC)C(C)(C)C)C(C)(C)C [Atazanavir] | – | – | no antiviral effects

Reference: patent US20230172907A1, “SARS-COV-2 INHIBITORS” (priority 2021, published 2023)
